Measurements as given in ChEMBL document CHEMBL5370605, “Discovery of Novel Fedratinib-Based HDAC/JAK/BRD4 Triple Inhibitors with Remarkable Antitumor Activity against Triple Negative Breast Cancer” (J Med Chem, 2023).

Key:
[1] = Half life in ICR (CD-1) mouse at 50 mg/kg, ip measured for 24 hrs by LC-MS/MS analysis; type: ADME, organism-based; conditions: in vivo
[2] = AUC (0 to t) in ICR (CD-1) mouse at 10 mg/kg, iv measured for 24 hrs by LC-MS/MS analysis; type: ADME, organism-based; set-up: dose 10 mg/kg, time 24 hrs, route iv; conditions: in vivo
[3] = molecular target: Proto-oncogene tyrosine-protein kinase receptor Ret (Homo sapiens, UniProt P07949); assay: Inhibition of RET (unknown origin) incubated for 40 mins in presence of ATP by Kinase-glo luminescent assay
Chain of Proto-oncogene tyrosine-protein kinase receptor Ret (P07949 whole entry): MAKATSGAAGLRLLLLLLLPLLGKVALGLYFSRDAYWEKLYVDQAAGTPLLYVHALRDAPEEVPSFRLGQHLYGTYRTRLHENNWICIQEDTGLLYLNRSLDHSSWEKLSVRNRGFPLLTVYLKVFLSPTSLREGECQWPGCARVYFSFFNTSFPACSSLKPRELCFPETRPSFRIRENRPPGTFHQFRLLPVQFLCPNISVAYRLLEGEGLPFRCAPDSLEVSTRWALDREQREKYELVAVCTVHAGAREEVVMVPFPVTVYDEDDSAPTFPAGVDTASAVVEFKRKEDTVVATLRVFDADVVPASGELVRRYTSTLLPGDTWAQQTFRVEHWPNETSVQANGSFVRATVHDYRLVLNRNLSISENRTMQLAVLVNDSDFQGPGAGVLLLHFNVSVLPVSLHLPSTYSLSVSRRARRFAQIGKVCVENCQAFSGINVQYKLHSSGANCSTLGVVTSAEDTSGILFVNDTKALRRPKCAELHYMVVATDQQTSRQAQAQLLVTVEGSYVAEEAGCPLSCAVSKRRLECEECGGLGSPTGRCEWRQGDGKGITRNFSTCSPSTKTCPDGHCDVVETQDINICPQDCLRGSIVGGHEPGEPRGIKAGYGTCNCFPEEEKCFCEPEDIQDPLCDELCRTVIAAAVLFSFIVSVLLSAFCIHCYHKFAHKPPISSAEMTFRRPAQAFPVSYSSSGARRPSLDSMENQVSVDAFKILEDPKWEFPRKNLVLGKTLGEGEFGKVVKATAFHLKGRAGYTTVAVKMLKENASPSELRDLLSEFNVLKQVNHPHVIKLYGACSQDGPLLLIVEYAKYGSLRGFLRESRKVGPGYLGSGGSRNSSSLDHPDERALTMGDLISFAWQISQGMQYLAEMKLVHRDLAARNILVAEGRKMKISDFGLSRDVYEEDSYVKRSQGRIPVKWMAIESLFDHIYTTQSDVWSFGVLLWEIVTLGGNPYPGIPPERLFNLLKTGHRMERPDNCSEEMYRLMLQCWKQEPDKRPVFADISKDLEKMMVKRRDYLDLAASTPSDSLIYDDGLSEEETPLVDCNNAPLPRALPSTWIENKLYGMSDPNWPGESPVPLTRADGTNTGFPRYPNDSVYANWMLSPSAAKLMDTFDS

[4] = Toxicity in athymic BALB/c nude mouse xenografted with human MDA-MB-231 cells assessed as reduction in body weight at 25 to 50 mg/kg/day, ip administered for 28 consecutive days; type: organism-based; conditions: in vivo, 672 h, dose 25-50 mg/kg/day, time 28 day

half-life [1]: 2.51 h
AUCt [2]: 1951 ng·h/mL
IC50 [3]: 47 nM
Compound: Cc1cnc(Nc2ccc(OCCN3CCCC3)cc2)nc1Nc1ccc(C(=O)NO)cc1
Activity [4]: Non-Toxic
